Results: patent publication US8927484B2, “Antiviral compounds” (Gilead Sciences, Inc., priority 2009, dated 2015)

System: Replicon cells harboring H77 (genotype 1a) or Con1 (genotype 1b) HCV RNA and Renilla luciferase reporter
Test: High Throughput Replicon Assay (HTBS)
Format: cell-based
Conditions: 72 h, read-out: INH @1 μM (Mean)
Method: High Throughput Replicon Assay (HTBS)
Replicon cells harboring H77 (genotype 1a) or Con1 (genotype 1b) HCV RNA and Renilla luciferase reporter were seeded in 384-well black plates at a density of 1.6×10^3 cells per well in 90 μl of DMEM culture medium, excluding G-418. Compounds were serially diluted in 100% DMSO and added to cells at a 1:225 dilution, achieving a final concentration of 0.44% DMSO in a total volume of 90 μL with a Biotek uFlow Workstation. Cell plates were incubated at 37° C. with 5% CO2 for 3 days, after which culture media were removed and cells were assayed for luciferase activity as a marker for replication level. Luciferase expression was measured using Dual-Glo luciferase assay reagents (Promega, Madison, Wis.). Briefly, 20 μL of Dual-Glo luciferase buffer was added to lyse the cells for 10 min and subsequently 20 μL of a diluted Dual-Glo Stop & Glo substrate (1:100) was added to each well. Luminescence signal was measured on a Perkin Elmer Envision Plate Reader after incubation for 10 minute. Luciferase levels were converted into percentages relative to the untreated controls (defined as 100%) and data were fit to the logistic dose response equation y=a/(1+(x/b)^c) using XLFit4 software (IDBS, Emeryville, Calif.). EC50 values were calculated from the resulting equations.

SMILES	inhibition at 1 µM [%]
CC[C@@H]1C[C@]1(NC(=O)[C@@H]1C[C@@H](Oc2cc(-c3nc(C(C)C)cs3)nc3c(Cl)c(OCCN4CCOCC4)ccc23)[C@H]2CN(C(=O)OC(C)(C)C)[C@H](C3CCOCC3)C(=O)N21)C(=O)NS(=O)(=O)C1CC1 [Example 74]	> 90
CC[C@@H]1C[C@]1(NC(=O)[C@@H]1C[C@@H](Oc2cc(-c3nc(C(C)C)cs3)nc3c(Cl)c(OCCN4CCOCC4)ccc23)[C@H]2CN(C(=O)OC(C)(C)C)[C@H]([C@@H](C)CC)C(=O)N21)C(=O)NS(=O)(=O)C1CC1 [Example 42]	> 95
C=C[C@@H]1C[C@]1(NC(=O)[C@@H]1C[C@@H](Oc2cc(-c3csc(C(C)C)n3)nc3c(Cl)c(OC)ccc23)[C@H]2CN(C(=O)OC(C)(C)C)[C@H](C(C)(C)C)C(=O)N21)C(=O)NS(=O)(=O)C1CC1 [Example 2]	> 99
C=C[C@@H]1C[C@]1(NC(=O)[C@@H]1C[C@@H](Oc2cc(-c3nc(C(C)C)cs3)nc3c(Cl)c(OCCN4CCOCC4)ccc23)[C@H]2CN(C(=O)OC(C)(C)C)[C@H](C(C)C)C(=O)N21)C(=O)NS(=O)(=O)C1(C)CC1 [Example 46]	> 99
C=C[C@@H]1C[C@]1(NC(=O)[C@@H]1C[C@@H](Oc2cc(-c3nc(C(C)C)cs3)nc3c(Cl)c(OCCN4CCOCC4)ccc23)[C@H]2CN(C(=O)OC3CCCC3)[C@H](C(C)C)C(=O)N21)C(=O)NS(=O)(=O)C1CC1 [Example 20]	> 90
C=C[C@@H]1C[C@]1(NC(=O)[C@@H]1C[C@@H](Oc2cc(-c3nc(C(C)C)cs3)nc3c(Cl)c(OCCN4CCOCC4)ccc23)[C@H]2CN(C(=O)OC(C)(C)C)[C@H]([C@H](C)CC)C(=O)N21)C(=O)NS(=O)(=O)C1CC1 [Example 49]	> 95
C=C[C@@H]1C[C@]1(NC(=O)[C@@H]1C[C@@H](Oc2cc(-c3csc(C(C)C)n3)nc3c(Cl)c(OC)ccc23)[C@H]2CN(C(=O)OC(C)(C)C)[C@H](C(C)(C)C)C(=O)N21)C(=O)NS(=O)(=O)C1(C)CC1 [Example 4]	> 99
CC[C@@H]1C[C@]1(NC(=O)[C@@H]1C[C@@H](Oc2cc(-c3nc(C(C)C)cs3)nc3c(Cl)c(OC)ccc23)[C@H]2CN(C(=O)OC(C)(C)C)[C@H](C(C)C)C(=O)N21)C(=O)NS(=O)(=O)C1CC1 [Example 6]	> 99
C=C[C@@H]1C[C@]1(NC(=O)[C@@H]1C[C@@H](Oc2cc(-c3nc(C(C)C)cs3)nc3c(Cl)c(OC)ccc23)[C@H]2CN(C(=O)OC(C)(C)C)[C@H](C(C)C)C(=O)N21)C(=O)NS(=O)(=O)C1CC1 [Example 8]	> 99
CC[C@@H]1C[C@]1(NC(=O)[C@@H]1C[C@@H](Oc2cc(-c3nc(C(C)C)cs3)nc3c(C)c(OC)ccc23)[C@H]2CN(C)[C@H](C(C)C)C(=O)N21)C(=O)NS(=O)(=O)C1CC1 [Example 63]	> 40
C=C[C@@H]1C[C@]1(NC(=O)[C@@H]1C[C@@H](Oc2cc(-c3nc(C(C)C)cs3)nc3c(Cl)c(OCCN4CCOCC4)ccc23)[C@H]2CN(C(=O)CC(C)(C)C)[C@H](C(C)C)C(=O)N21)C(=O)NS(=O)(=O)C1CC1 [Example 19]	> 55
C=C[C@@H]1C[C@]1(NC(=O)[C@@H]1C[C@@H](Oc2cc(-n3ccc(C(C)C)n3)nc3c(Cl)c(OCCN4CCOCC4)ccc23)[C@H]2CN(C(=O)OC(C)(C)C)[C@H](C(C)C)C(=O)N21)C(=O)NS(=O)(=O)C1CC1 [Example 30]	> 35
C=C[C@@H]1C[C@]1(NC(=O)[C@@H]1C[C@@H](Oc2cc(-c3nc(C(C)C)cs3)nc3c(Cl)c(OCCN4CCOCC4)ccc23)[C@H]2CN(C(=O)OC(C)(C)C)[C@H](C(C)(C)OC)C(=O)N21)C(=O)NS(=O)(=O)C1CC1 [Example 34]	> 95
COc1ccc2c(O[C@@H]3C[C@H]4C(=O)N[C@]5(C(=O)NS(=O)(=O)C6CC6)C[C@H]5/C=C\CCCCC[C@@H]5C(=O)N4[C@@H]3CN5C(=O)OC(C)(C)C)cc(-c3cccc(C(C)C)n3)nc2c1Cl [Example 94]	> 99
C=C[C@@H]1C[C@]1(NC(=O)[C@@H]1C[C@@H](Oc2cc(-c3nc(C(C)C)cs3)nc3c(Cl)c(OCCN4CCOCC4)ccc23)[C@H]2CN(C(=O)OC(C)(C)C)[C@H](C3CCOCC3)C(=O)N21)C(=O)NS(=O)(=O)C1CC1 [Example 73]	> 90
C=C[C@@H]1C[C@]1(NC(=O)[C@@H]1C[C@@H](Oc2cc(-c3nc(C(C)C)cs3)nc3c(C)c(OC)ccc23)[C@H]2CN(C)[C@H](C(C)C)C(=O)N21)C(=O)NS(=O)(=O)C1CC1 [Example 62]	> 99
CC[C@@H]1C[C@]1(NC(=O)[C@@H]1C[C@@H](Oc2cc(-c3nc(C(C)C)cs3)nc3c(Cl)c(OCCN4CCOCC4)ccc23)[C@H]2CN(C(=O)OC(C)(C)C)[C@H]([C@H](C)CC)C(=O)N21)C(=O)NS(=O)(=O)C1CC1 [Example 36]	> 90

SMILES	inhibition at 1 µM [%]
C=C[C@@H]1C[C@]1(NC(=O)[C@@H]1C[C@@H](Oc2cc(-c3nc(C(C)C)cs3)nc3c(Cl)c(OCCN4CCOCC4)ccc23)[C@H]2CN(C(=O)OC(C)(C)C)[C@H]([C@@H](C)OC)C(=O)N21)C(=O)NS(=O)(=O)C1CC1 [Example 54]	> 45
C=C[C@@H]1C[C@]1(NC(=O)[C@@H]1C[C@@H](Oc2cc(-c3nc(C(C)C)cs3)nc3c(Cl)c(OCCN4CCOCC4)ccc23)[C@H]2CN(C(=O)OC(C)(C)C)[C@H](C(C)C)C(=O)N21)C(=O)NS(=O)(=O)C1CC1 [Example 9]	> 99
C=C[C@@H]1C[C@]1(NC(=O)[C@@H]1C[C@@H](Oc2cc(-c3nc(C(C)C)cs3)nc3c(Cl)c(OCCN4CCOCC4)ccc23)[C@H]2CN(C(=O)OC(C)(C)C)C(=C(C)C)C(=O)N21)C(=O)NS(=O)(=O)C1CC1 [Example 35]	> 35
C=C[C@@H]1C[C@]1(NC(=O)[C@@H]1C[C@@H](Oc2cc(-c3nc(C(C)C)cs3)nc3c(Cl)c(OCCOC)ccc23)[C@H]2CN(C(=O)OC(C)(C)C)[C@H](C(C)(C)C)C(=O)N21)C(=O)NS(=O)(=O)C1CC1 [Example 22]	> 99
CC[C@@H]1C[C@]1(NC(=O)[C@@H]1C[C@@H](Oc2cc(-c3nc(C(C)C)cs3)nc3c(Cl)c(OCC(OC)OC)ccc23)[C@H]2CN(C(=O)OC(C)(C)C)[C@H](C(C)C)C(=O)N21)C(=O)NS(=O)(=O)C1CC1 [Example 13]	> 99
C=C[C@@H]1C[C@]1(NC(=O)[C@@H]1C[C@@H](Oc2cc(-n3ccc(C(C)C)n3)nc3c(Cl)c(OCCN4CCOCC4)ccc23)[C@H]2CN(C(=O)OC(C)(C)C)[C@H](C(C)(C)C)C(=O)N21)C(=O)NS(=O)(=O)C1CC1 [Example 28]	> 99
C=C[C@@H]1C[C@]1(NC(=O)[C@@H]1C[C@@H](Oc2cc(-c3nc(C(C)C)cs3)nc3c(Cl)c(OCCN4CCOCC4)ccc23)[C@H]2CN(C(=O)OC(C)(C)C)[C@H](C(C)(C)C)C(=O)N21)C(=O)NS(=O)(=O)C1CC1 [Example 26]	> 99
C=C[C@@H]1C[C@]1(NC(=O)[C@@H]1C[C@@H](Oc2cc(-c3nc(C(C)C)cs3)nc3c(Cl)c(OCCN4CCOCC4)ccc23)[C@H]2CN(S(C)(=O)=O)[C@H](C(C)C)C(=O)N21)C(=O)NS(=O)(=O)C1CC1 [Example 16]	> 25
CC[C@@H]1C[C@]1(NC(=O)[C@@H]1C[C@@H](Oc2cc(-c3nc(C(C)C)cs3)nc3c(C)c(OC)ccc23)[C@H]2CN(C(=O)OC(C)(C)C)[C@H](C(C)C)C(=O)N21)C(=O)NS(=O)(=O)C1CC1 [Example 59]	> 45
C=C[C@@H]1C[C@]1(NC(=O)[C@@H]1C[C@@H](Oc2cc(-c3cccc(C(C)C)n3)nc3c(Cl)c(OC)ccc23)[C@H]2CN(C(=O)OC(C)(C)C)[C@H](C(C)C)C(=O)N21)C(=O)NS(=O)(=O)C1CC1 [Example 21]	> 99
CC[C@@H]1C[C@]1(NC(=O)[C@@H]1C[C@@H](Oc2cc(-c3nc(C(C)C)cs3)nc3c(Cl)c(OCCN4CCOCC4)ccc23)[C@H]2CN(C(=O)OC(C)(C)C)[C@H](C(C)C)C(=O)N21)C(=O)NS(=O)(=O)C1CC1 [Example 11]	> 50
C=C[C@@H]1C[C@]1(NC(=O)[C@@H]1C[C@@H](Oc2cc(-c3nc(C(C)C)cs3)nc3c(C)c(OC)ccc23)[C@H]2CN(C(=O)OC(C)(C)C)[C@H](C(C)(C)C)C(=O)N21)C(=O)NS(=O)(=O)C1CC1 [Example 24]	> 99
C=C[C@@H]1C[C@]1(NC(=O)[C@@H]1C[C@@H](Oc2cc(-c3cccc(C(C)C)n3)nc3c(Cl)c(OC)ccc23)[C@H]2CN(C(=O)OC(C)(C)C)[C@H](C(C)(C)C)C(=O)N21)C(=O)NS(=O)(=O)C1CC1 [Example 44]	> 99
C=C[C@@H]1C[C@]1(NC(=O)[C@@H]1C[C@@H](Oc2cc(-c3nc(C(C)C)cs3)nc3c(Cl)c(OCCN4CCOCC4)ccc23)[C@H]2CN(C(=O)OC(C)(C)C)[C@H]([C@H](C)OC)C(=O)N21)C(=O)NS(=O)(=O)C1CC1 [Example 55]	> 95
C=C[C@@H]1C[C@]1(NC(=O)[C@@H]1C[C@@H](Oc2cc(-c3nc(C(C)C)cs3)nc3c(C)c(OC)ccc23)[C@H]2CN(C(=O)OC(C)(C)C)C([C@H](C)CC)C(=O)N21)C(=O)NS(=O)(=O)C1CC1 (stereo partly shown) [Example 38]	> 95
C=C[C@@H]1C[C@]1(NC(=O)[C@@H]1C[C@@H](Oc2cc(-c3nc(C(C)C)cs3)nc3c(Cl)c(OCCN4CCOCC4)ccc23)[C@H]2CN(C(=O)OC(C)(C)C)[C@H]([C@@H](C)CC)C(=O)N21)C(=O)NS(=O)(=O)C1CC1 [Example 40]	> 75
C=C[C@@H]1C[C@]1(NC(=O)[C@@H]1C[C@@H](Oc2cc(-c3nc(C(C)C)cs3)nc3c(C)c(OC)ccc23)[C@H]2CN(C(=O)OC(C)(C)C)[C@H](C(C)C)C(=O)N21)C(=O)NS(=O)(=O)C1CC1 [Example 58]	> 85
